Experimental data reported in publication PMC9014415, “Repositioning of a Diaminothiazole Series Confirmed to Target the Cyclin-Dependent Kinase CRK12 for Use in the Treatment of African Animal Trypanosomiasis” (Journal of Medicinal Chemistry, 2022).
“Also recorded” adds a separate entry of the source.

How the values were obtained:
[1] = test system: T. congolense; assay: In vitro drug sensitivity assay, T. congolense (IL3000); assay type: cell-based; conditions: Trypanosoma congolense; IL3000 strain
Experimental: 1.2 In vitro drug sensitivity assays - Trypanosoma congolense
EC50 values for test compounds against T. congolense (IL3000 strain) were conducted as previously described3 with minor modifications.4 Briefly, trypanosome cell densities were determined using a CASY cell counter (Schärfe) and diluted to a seeding density of 2 x 105 trypanosomes/mL. BSF trypanosomes were grown in HMI-9 (IMDM) media supplemented with 20% (v/v) bovine serum.1 Test compounds were resuspended to a final concentration of 10 mg/mL in DMSO. Assays plates were incubated at 34 °C with 5 % CO2, for a total of 69 h, prior to addition of 10 µL of Resazurin (12.5 mg in 100 mL phosphate buffered saline, Aldrich) into each well, followed by a further 3 h incubation. Absorbance was read using a SpectraMax (Gemini XS) fluorescence reader at an excitation wavelength of 536 nm and an emission wavelength of 588 nm. EC50 values were determined using SOFTmax Pro 5.2 analysis software. All experiments were conducted with technical duplicates, and at least three biological replicates. […]

[2] = test system: T. vivax; assay: NMRI mouse efficacy model, T. vivax; assay type: in vivo, Trypanosoma vivax; conditions: for Efficacy at 10 mg/kg SC for 4 days, T. vivax / Efficacy, T. vivax: mice; for Efficacy at 10 mg/kg SC for 4 days, T. vivax: 10 mg/kg SC once daily for 4 days
Experimental: 3. In vivo efficacy studies
The T. congolense (IL3000) and T. vivax (ILRAD V34) cell lines7, 8, both originating from Kenya, were used in the following in vivo mouse studies. For studies in cattle, either Trypanosoma congolense (savannah) KONT 2/133, 224) or T. vivax STIB 719 was used.
3.1 Mouse efficacy studies for T. brucei brucei.
Mouse efficacy studies for T. brucei brucei were carried out as previously detailed.9 3.2 NMRI mouse efficacy studies for T. congolense and T. vivax.
Mouse models of infections were carried out using standardized protocols. Briefly, 1 mL samples of cryopreserved T. congolense, or T. vivax-infected blood harvested directly from an infected mouse, were diluted with Hanks Balanced Salt Solution plus 20 mM glucose (HBSS+G) to 5 x 10^4 trypomastigotes/mL (5 x 105 for T. vivax). Female mice (NMRI) were inoculated IP on day 0 with 0.2 mL/animal (equivalent to ~ 1 x 104 T. congolense or ~ 1 x 105 T. vivax per animal). The level of parasitaemia was inspected microscopically on day 3 using tail blood smears, counting 20 high powered fields (× 400 magnification). For untreated or treated animals whose tail smears exceeded 50 parasites/field, precise parasite levels were established using a Neubauer haemocytometer; mice with a parasite burden over 1 x 108 were promptly and humanely terminated (T. congolense only, from our experience the mice will not survive for a further 24 h). Alternatively, in the case of T. vivax-infected mice the immune system will bring the infection to a sub-lethal level (below limit of detection) […]
followed by cycles of high and low parasitaemia. Eventually mice infected with T. vivax succumb to the infection between 30 – 60 days post-infection.
Suppression of parasitaemia - mouse
On day 3 post-infection, animals were randomly allocated to groups, with 3 mice/group. Infected animals were dosed with one of the following: diaminazene diaceturate IP. – 40 mg/kg once only as a control (early-stage trypanocide used to clear the parasites in the systemic circulation and in tissues other than CNS), compound 1 (SC) at 3, 10, 30 and 50 mg free base/kg twice and once daily for 4 d or a single dose, or compound 2 (SC) at 3 and 10 mg free base /kg once daily for 4 d, once daily for 2 d or a single dose, one group of 3 mice acted as an untreated control group. The dose solutions were prepared daily, using 5% DMSO: 40% PEG400: 55% MilliQ H2O for test compounds and 10% DMSO: 90% peanut oil for standard drugs. Alternatively, compound 2 was delivered for 48 h via SC implanted ALZET osmotic pumps (6, 12, 25 and 50 mg free base/mL, vehicle: 50% DMSO […]
and 50% deionized water).
Response to treatment was determined by monitoring parasitaemia twice a week until day 21.
After day 21, the mice were checked once a week until 63 d post-treatment. Mice surviving to the end of the experiment, and with blood smears clear of parasites, were considered cured. […]
The parasites were obtained from a donor calf. This isolate is resistant to diminazene (20 mg/kg) and isometamidium (1 mg/kg) in cattle, and diminazene (7 mg/kg) and isometamidium (>1 mg/kg) in mice. Calves were parasitaemic by study day 6. Calves (n = 5) were treated with compound 1 (5 mg/kg, SC, twice 12 h apart) on study

[3] = test system: L6 cells; assay: Cytotoxicity assay, rat skeletal myoblasts (L6); assay type: cell-based
Experimental: 1.4 Cytotoxicity assays – Rat skeletal myoblasts (L6)
The cytotoxicity of test compounds was evaluated using a rat skeletal myoblast (L6) cell line, as previously described3, but with minor modifications. Cells were grown in RPMI media supplemented with 10% (v/v) fetal calf serum. L6 cells at a seeding density of 2 x 10^4 cells/mL were incubated in microtiter plates overnight at 37 °C and 5 % CO2 until adherent. The following day, test compounds were added to the plates (3-fold serial dilutions), prior to incubation for 69 h. Following incubation, 10 µL of Resazurin (12.5 mg in 100 mL phosphate buffered saline, Aldrich) was added to each well and the plates were incubated for a further 3 h. The plates were read using a SpectraMax (Gemini XS) fluorescence reader at an excitation wavelength of 536 nm and an emission wavelength of 588 nm. EC50 values were determined using SOFTmax Pro 5.2 analysis software. All experiments were conducted as technical replicates, with at least three biological replicates. […]

CNCc1cc(F)c(C(=O)c2sc(N[C@H]3CC[C@H](NS(=O)(=O)CC(C)C)CC3)nc2N)c(F)c1.Cl [Compound 8, N-((trans)-4-((4-Amino-5-(2,6-difluoro-4-((methylamino)methyl)benzoylthiazol-2-yl)amino)cyclohexyl))-2-methylpropane-1-sulfonamide Hydrochloride]
EC50 [1]: 0.0013 µM
Efficacy at 10 mg/kg SC for 4 days, T. vivax [2]: Full cure (3/3)
EC50 [3]: 15 µM

CC(C)CS(=O)(=O)N[C@H]1CC[C@H](Nc2nc(N)c(C(=O)c3c(F)cc(CN(C)C)cc3F)s2)CC1 [Compound 2, N-(trans)-[4-[[4-Amino-5-[4-(dimethylaminomethyl)-2,6-difluoro-benzoyl]thiazol-2-yl]amino]cyclohexyl]-2-methyl-propane-1-sulfonamide]
EC50 [1]: 0.0032 µM
Efficacy, T. vivax ([2]; 3 mg/kg for 4 days, 3 mg/kg): Full cure (3/3) 3 and 10 mg/kg for 4 days 10 mg/kg for 2 days; also recorded: Full cure (3/3); 3 and 10 mg/kg for 4 days, 10 mg/kg for 2 days
Efficacy at 10 mg/kg SC for 4 days, T. vivax ([2]; 10 mg/kg): fully curative; also recorded: Full cure (3/3) 3 and 10 mg/kg for 4 days 10 mg/kg for 2 days; also recorded: Full cure (3/3); 3 and 10 mg/kg for 4 days, 10 mg/kg for 2 days
Efficacy, T. vivax ([2]; 10 mg/kg for 2 days, 10 mg/kg): Full cure (3/3) 3 and 10 mg/kg for 4 days 10 mg/kg for 2 days; also recorded: Full cure (3/3); 3 and 10 mg/kg for 4 days, 10 mg/kg for 2 days
EC50 [3]: 3.6 µM

CC(C)CS(=O)(=O)N[C@H]1CC[C@H](Nc2nc(N)c(C(=O)c3c(F)cccc3F)s2)CC1 [Compound 1, N-((trans)-4-((4-Amino-5-(2,6-difluorobenzoyl)thiazol-2-yl)amino)cyclohexyl)-2-methylpropane-1-sulfonamide]
EC50 [1]: 0.018 µM
Acute T. vivax efficacy in mice ([2]; 3 mg/kg bid SC for 4 days): Full cure
T. vivax efficacy in mice ([2]; 3 mg/kg once daily for 4 days, SC): sterile cure
Acute T. vivax efficacy in mice ([2]; 10 mg/kg bid SC for 4 days): Full cure
Acute T. vivax efficacy in mice ([2]; 10 mg/kg, single dose, SC): Partial cure (1/3)
Acute T. vivax efficacy in mice ([2]; 30 mg/kg, single dose, SC): sterile cure; also recorded: Full cure

CC(C)CS(=O)(=O)N[C@H]1CC[C@H](Nc2nc(N)c(C(=O)c3c(Cl)cccc3Cl)s2)CC1 [Compound 10, N-((trans)-4-((4-Amino-5-(2,6-dichlorobenzoyl)thiazol-2-yl)amino)cyclohexyl)-2-methylpropane-1-sulfonamide]
EC50 [1]: 0.0004 µM
Efficacy, T. vivax ([2]; 3 mg/kg for 4 days): Full cure (3/3) 3 mg/kg
EC50 [3]: 3.4 µM
